Assay results reported in patent US20260158002A1, “APPLICATION OF COMPOSITION CONTAINING EDARAVONE AND DEXBORNEOL IN IMPROVING OR TREATING COGNITIVE IMPAIRMENT” (NEURODAWN PHARMACEUTICAL CO., LTD., priority 2021, published 2026).

How the values were obtained:
Aβ1-42 = Aβ1-42 (Homo sapiens, UniProt P05067); settings: in vitro; concentration range of 0.156 to 5 μM; cited from earlier work
[1] = tested on: primary hippocampal neurons; settings: cited from earlier work
[2] = tested on: rat model in which oligomerized Aβ1-40 is injected into the hippocampal dentate gyrus; settings: edaravone 5 mg/kg at the same site with intracerebral Aβ injection; cited from earlier work
ICV-STZ model rats = settings: cited from earlier work
5×FAD transgenic mice [3] = test: Water maze test in 5×FAD transgenic mice; format: in vivo, mouse; settings: 5×FAD mice
Method: (§1) In the experiment, the animals were divided into 4 groups. Administration was performed on the mice in each group from 8 weeks of age. After 16 weeks of continuous daily administration, water maze and Y maze behavioral tests were performed. After the behavioral tests were completed, the animals were sacrificed, and brain slice electrophysiology and AD pathology within the brain were tested, including the test of Aβ plaques, biomarkers such as GFAP and Iba-1, p-Tau, etc.
(§2) 5×FAD: edaravone group: ten 5×FAD mice were given edaravone ( ? ®) 6 mg/kg via i.p. at a dose of 10.0 mL/kg once daily.
5×FAD: composition group: ten 5×FAD mice were given 7.5 mg/kg edaravone and dexborneol concentrated solution for injection ( ? ®) (edaravone:dexborneol=4:1, containing 6 mg/kg edaravone and 1.5 mg/kg dexborneol) at a dose of 10.0 ml/kg once daily.
Experiment preparation: A constant temperature pool (120 cm in inner diameter and 50 cm in height) of a water maze was filled with clear water. The water temperature was controlled at about 18° C.-22° C. The four apexes of the pool were selected and designated as “S”, “N”, “W” and “E”, respectively. The platform was placed in the “SW” direction and 1-2 cm below the water surface. Titanium dioxide was added to the water to make the water opaque milky white.
Parameter setting: the test time was set to 1 min, and the residence time of mice on the platform was set to 2 s.
Training: The first 5 days were for the training phase of the water maze, the mice were placed in the pool in four different orientations every day, and their trajectories before boarding the platform, as well as the travel and time in each quadrant were recorded.
Testing: Testing was performed on the first day after the training was completed. During the testing, the platform was removed, the testing time was 60 s, the mouse was placed in the NE orientation, and the number of times the mouse crossed the platform and the time in the platform quadrant during the testing were recorded.
(§3) Data were expressed as Mean±SEM. […]

5×FAD transgenic mice [4] = test: Y maze test in 5×FAD transgenic mice; format: in vivo, mouse; settings: 5×FAD mice; edaravone 6 mg/kg or composition 7.5 mg/kg i.p. once daily for 16 weeks
Method: as §1, §2
5×FAD: composition group: ten 5×FAD mice were given 7.5 mg/kg edaravone and dexborneol concentrated solution for injection ( ? ®) (edaravone:dexborneol=4:1, containing 6 mg/kg edaravone and 1.5 mg/kg dexborneol) at a dose of 10.0 ml/kg once daily. […]
Testing: After 1 h of training, the baffle was removed, the channel of the Y maze was wiped with alcohol to remove the odor of the previous mouse, the mouse to be tested was placed in the same position for 5 min and video recording was performed, and the number of times the mouse entered the newly opened arm as a percentage of the total number of times it entered the three arms was recorded in the test.
as §3

[5] = tested on: rat model of scopolamine-induced dementia; settings: oral 15 mg/kg/day for 7 consecutive days; cited from earlier work
5×FAD transgenic mice [6] = test: Brain slice electrophysiology test (hippocampal LTP) in 5×FAD transgenic mice; format: in vivo, mouse; settings: brain slices after 16 weeks of administration; edaravone 6 mg/kg or composition 7.5 mg/kg i.p. once daily
Method: as §1
Electrophysiological recording was performed after the behavioral test of mice was completed. After anesthesia, all mice were euthanized, the brain tissues were rapidly collected and stored in 4° C. oxygenated (95% O2/5% CO2) artificial cerebrospinal fluid (ACSF) (75 mM sucrose, 87 mM NaCl, 2.5 mM KCl), 1.25 mM NaH2PO4, 21.4 mM NaHCO3, 0.5 mM CaCl2, 7 mM MgCl2 and 20 mM glucose. Hippocampal slices were cut by a vibrating knife in 4° C. oxygenated ACSF, and in 32° C. oxygenated ACSF. Next, the slices were incubated at room temperature for 1 hour before recording. Hippocampal LTP was induced by two theta burst stimulations (TBS). Data acquisition and analysis were performed using Clampex and Clampfit 8.2 (Molecular Devices).
as §3

[7] = tested on: SH-SY5Y and primary cortical neurons; settings: cited from earlier work
[8] = edaravone 6 mg/kg or composition 7.5 mg/kg i.p. once daily for 16 weeks

Sequence of Aβ1-42 (P05067 672-713 limits assumed): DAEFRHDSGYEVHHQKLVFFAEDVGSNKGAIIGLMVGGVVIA

CC1=NN(c2ccccc2)C(=O)C1 [edaravone, 3-methyl-1-phenyl-2-pyrazolin-5-one]
aggregation of Aβ1-42 monomer as Aβ fibrils and disaggregation of Aβ fibrils (Aβ1-42): capable of inhibiting the aggregation of Aβ1-42 monomer as Aβ fibrils and disaggregating Aβ fibrils in a concentration-dependent manner
H2O2- and glutamate-induced death of primary hippocampal neurons [1]: capable of reducing H2O2— and glutamate-induced death of primary hippocampal neurons
spatial learning and memory in water maze [2]: can significantly improve the spatial learning and memory of rats in water maze
spatial learning and memory (Morris water maze) and non-spatial long-term memory (step-down passive avoidance) (ICV-STZ model rats; intraperitoneal 9 mg/kg/day for 14 consecutive days): can significantly improve the spatial learning and memory
cognitive function in water maze test and passive avoidance test (ICV-STZ model rats; oral 1, 3 and 10 mg/kg/day for 28 consecutive days): can also improve the cognitive function of ICV-STZ rats in water maze test and passive avoidance test
number of times the mouse crossed the platform in platform withdrawal test, vs solvent control (5×FAD transgenic mice [3]; [8]): prolong the residence time in the target quadrant and the number of times the mouse crossed the platform
residence time in the target quadrant in platform withdrawal test, vs solvent control (5×FAD transgenic mice [3]; [8]): prolong the residence time in the target quadrant
escape latency in water maze hidden platform test, vs solvent control (5×FAD transgenic mice [3]; edaravone 6 mg/kg or composition 7.5 mg/kg i.p. once daily for 16 weeks from 8 weeks of age): could significantly shorten the escape latency
number of times the mouse entered the newly opened arm in Y maze, vs solvent control (5×FAD transgenic mice [4]): could significantly increase the number of times the mouse entered the newly opened arm
scopolamine-induced spatial learning and long-term memory impairments [5]: can improve scopolamine-induced spatial learning and long-term memory impairments
restoration of hippocampal LTP, vs 5×FAD mouse group (5×FAD transgenic mice [6]): no obvious restoration effect
neurotoxicity of Aβ1-42 [7]: capable of reducing the neurotoxicity of Aβ1-42 to SH-SY5Y and primary cortical neurons
